# Results: patent US20130108573A1, “Bile Acid Recycling Inhibitors for Treatment of Hypercholemia and Cholestatic Liver Disease” (Lumena Pharmaceuticals, Inc., priority 2011, published 2013)
# Tests used:
# [1] = system: Serum Bile Acid and Fecal Bile Acid; test: Phase 1 ascending multiple oral dose study of LUM001 in healthy adult subjects: serum and fecal bile acid analysis; type: in vivo, human; details: ascending multiple oral doses, 28 days, vs placebo
# Description: This Phase 1 study was a randomized, double-blind, placebo-controlled study of ascending multiple oral doses of LUM001 in healthy, adult subjects. This study was conducted at a single center. There were 13 LUM001 dosing panels: 10, 20, 60, 100, and 20 mg every morning (qAM) (2) (i.e., the regimen was tested a second time in the study), 5 mg every evening (qPM), 0.5, 1, 2.5, 5, 2.5 (2), 5 (2), and 0.5 to 5 mg qAM dose titration. Most of the dosing panels included subjects treated with matching placebo. Shown in the graphs are data from the 0.5 (n=16), 1.0 (n=8), 2.5 (n=8), 5.0 (n=8) and 10 (n=8) mg dosing groups. […]
# SBA were analyzed as part of the routine clinical analysis of the serum samples collected at each time point.
# Fecal samples were collected for all panels except the dose-titration panel, 2.5 (2) and 5 mg (2), on Days 9 through 14 and 23 through 28 (data shown in FIG. 4). Twenty-four hour FBA excretions were quantified by Pharmacia for Days 9 through 14 and 23 through 28. […] The weight of each 24-hour fecal collection was recorded on the CRFs. […]
# An aliquot for each 24-hour fecal sample collected on Days 23 through 28 was combined, homogenized, and analyzed for bile acid species concentrations by ANAPHARM. The fecal bile acid species evaluated include chenodeoxycholic acid, cholic acid, deoxycholic acid, and lithocholic acid.
# [2] = Pharmacokinetics of LUM001 in subjects under 18 years (study NB-00-02-014): systemic exposure; type: in vivo, human; details: for Average serum drug exposure: day eight
# Description: (§1) LUM001 has been administered to forty patients under the age of 18 years old. […] The drug was administered once-a-day (QD) in the morning for fourteen days. […] These doses are similar to those using to treat patients with cholestatic diseases.
# serum bile acids = test: Human study of LUM001 lowering fasting and post-prandial peak serum bile acids in children and adolescents; type: in vivo; details: for Fasting serum bile acid / Morning Post-prandial peak: after eight days of dosing
# Description: as §1
# The efficacy of LUM001 was determined by measuring total serum bile acids after eight days of dosing in children and adolescents under the age of eighteen. Thirty minutes before the next drug administration, at approximately 8 am in the morning, serum bile acid levels were measured. The child had refrained from food for 12 hours prior to this sample thus providing a fasted level of serum bile acid. After breakfast, serum bile acids were measured for up to the next 4 hours (8 am to noon) and the peak serum bile acid concentration noted.
# Dog Serum Bile Acids = details: dogs; previous experiments (2); cited from earlier work
# [3] = patient 401, drug dose 2.5 mg QD
structure (smiles),measurement,setting,value
CCCCC1(CCCC)CS(=O)(=O)c2ccc(N(C)C)cc2[C@@H](c2ccc(OCc3ccc(C[N+]45CCN(CC4)CC5)cc3)cc2)[C@H]1O [LUM001],Fecal bile acids,[1],significant increase
same,Serum bile acids,[1],significant reduction
same,Systemic exposure (absorption) of LUM001,"[2]; patients under the age of 18, once-a-day in the morning for fourteen days, measured on day eight",minimally absorbed
same,Average serum drug exposure,"[2]; subject 0304, LUM001 1.0 mg QD (24.3 μg/kg)",0.0 ng/mL
same,Average serum drug exposure,"[2]; subject 0309, LUM001 1.0 mg QD (35.0 μg/kg)",0.0 ng/mL
same,Decrease of average fasting serum bile acid level vs placebo patients,serum bile acids; LUM001 1-5 mg QD,24%
same,Decrease of average post-prandial peak serum bile acid level vs placebo patients,serum bile acids; LUM001 1-5 mg QD,23%
same,Average fasting serum bile acid level of LUM001 treated patients,"serum bile acids; LUM001 1-5 mg QD, placebo patients 8.6 μmol/L",6.5 µmol/L
same,Average post-prandial peak serum bile acid level of LUM001 treated patients,"serum bile acids; LUM001 1-5 mg QD, placebo patients 11.9 μmol/L",9.2 µmol/L
same,Fasting serum bile acid,"serum bile acids; patient 304, drug dose 1 mg QD",5.6 µmol/L
same,Morning Post-prandial peak,"serum bile acids; patient 304, drug dose 1 mg QD",8.4 µmol/L
same,Fasting serum bile acid,"serum bile acids; patient 308, drug dose 1 mg QD",6.8 µmol/L
same,Morning Post-prandial peak,"serum bile acids; patient 308, drug dose 1 mg QD",9.3 µmol/L
same,Fasting serum bile acid,"serum bile acids; patient 309, drug dose 1 mg QD",6.9 µmol/L
same,Morning Post-prandial peak,"serum bile acids; patient 309, drug dose 1 mg QD",10.0 µmol/L
same,Fasting serum bile acid,serum bile acids; [3],6.0 µmol/L
same,Morning Post-prandial peak,serum bile acids; [3],6.8 µmol/L
same,Fasting serum bile acid,"serum bile acids; patient 510, drug dose 5 mg QD",7.4 µmol/L
same,Morning Post-prandial peak,"serum bile acids; patient 510, drug dose 5 mg QD",11.3 µmol/L
same,Time LUM001 remains active,Dog Serum Bile Acids,more than 4.5 hours
